Measured values as given in patent US20200009173A1, “TRIAZOLE-CONTAINING MACROLIDES AND OPHTHALMIC USES THEREFOR” (Tetard, Inc., priority 2017, published 2020).
Converted amounts (≈) assume the structure as drawn. Read-outs that look alike come from different tables or passages of the source.

Tests used:
[1] = system: Streptococcus pneumoniae; assay: MIC, Streptococcus pneumoniae (150 strains); type: cell-based
[2] = system: Haemophilus influenzae; assay: MIC, Haemophilus influenzae (100 strains); type: cell-based
[3] = system: Chlamydophila pneumoniae; assay: MIC, Chlamydophila pneumoniae (10 strains); type: cell-based
[4] = system: Legionella pneumophila; assay: microbe, parasite or virus in culture; type: cell-based
[5] = system: Mycoplasma pneumoniae; assay: MIC, Mycoplasma pneumoniae (38 strains); type: cell-based
[6] = system: MSRA; assay: MICs of solithromycin and comparator drugs, MSRA (30 species); type: cell-based
Description: (§1) EXAMPLE. The formulations described herein show overall higher potency against ocular pathogens than commercial standards.
(§2) MICs (μg/ml) of Solithromycin and Comparator Drugs against Bacterial Species

[7] = system: S. epidermidis; assay: MICs of solithromycin and comparator drugs, S. epidermidis (30 species); type: cell-based
Description: as §1, §2

[8] = system: Staphylococcus aureus; assay: MIC, Staphylococcus aureus; type: cell-based; details: N = 201
[9] = system: CA-MRSA; assay: MIC, CA-MRSA; type: cell-based, Staphylococcus aureus; details: N = 30
[10] = system: Haemophilus parainfluenzae; assay: MIC, Haemophilus parainfluenzae; type: cell-based; details: N = 11
[11] = system: Streptococci (Groups C, F, G); assay: MIC, Streptococci (Groups C, F, G); type: cell-based; details: N = 185
[12] = system: pathogenic bacteria; type: cell-based
[13] = system: phagocytized L. pneumophila; type: cell-based
[14] = system: TNFα; assay: TNFα production in LPS-stimulated PMA-differentiated U937 cells (ELISA); type: cell-based, human
Experimental: EXAMPLE. […] Cells. The human monocytic cell line U937 was obtained from the American Type Culture Collection (ATCC, Rockville, Md.). PBMCs from COPD patients were obtained from Brompton hospital and separated by AccuSPIN (Sigma-Aldrich). […] U937 cells were differentiated into adherent macrophage-like morphology by exposure to PMA (50 ng/ml) for 48 h in complete growth medium. Cell viability was assessed microscopically by trypan blue staining. Cell toxicity was determined by MTT assay as needed. This study was approved by the ethics committee of the Royal Brompton Hospitals, and all subjects gave written informed consent. Cytokine ELISA. TNFα and IL-8 concentrations in the supernatant of cell cultures were determined by sandwich ELISA according to the manufacturer's instructions (R&D Systems Europe, Abingdon, UK). Statistical analysis. The results were expressed as the mean±SEM. Comparisons of data in two groups were performed using the Student's t test or the Wilcoxon signed rank test. Multiple comparisons were made by one-way ANOVA with post hoc test (Dunnett's) as appropriate. The difference was considered significant at p<0.05. […] Anti-inflammatory effects of solithromycin in U937 cells.

[15] = Corneal permeability, Franz-Cell Diffusion Apparatus; type: in vitro ADME; details: bovine (calf), pH 7
Experimental: EXAMPLE. Corneal Permeability. Corneal permeability is determined using conventional protocols. Briefly, corneal permeability is determined on freshly excised bovine (calf) cornea using a Franz-Cell Diffusion Apparatus generally with n=3/group. Freshly excised calf cornea are stored until use in hydrating solution containing glutathione and buffer. The Apparatus includes a donor chamber on the top where a predetermined volume of the formulation is pipetted and a jacketed receptor cell with a sampling side arm. The joint between the donor and receptor cell is upward-convex, mimicking the shape of the cornea. The corneal membrane is placed on the ball joint with the cornea facing the donor chamber. The Apparatus is clamped to secure the cells with the donor and receptor chambers aligned. […] The volume is recorded. […] Test samples are added in rapid succession by depositing 200 μL of the formulation into each donor chamber using a calibrated pipet and the times recorded. […] Flux can be calculated by the formula: J=Q/(A·t), where Q is the quantity (micrograms) of compound traversing the membrane in time t (minutes), and A is the area of exposed membrane in cm^2. […] After completion of the diffusion, corneas are weighed to determine the quantity of bound test compound in the cornea, and the corneal thicknesses of each cornea is measured at the point of diffusion (the center) using Vernier calipers. […]

## CC[C@H]1OC(=O)[C@@](C)(F)C(=O)[C@H](C)[C@@H](O[C@@H]2O[C@H](C)C[C@H](N(C)C)[C@H]2O)[C@](C)(OC)C[C@@H](C)C(=O)[C@H](C)[C@H]2N(CCCCn3cc(-c4cccc(N)c4)nn3)C(=O)O[C@]12C [CEM-101, solithromycin]
[1]; N = 150
  MIC90: 250 ng/mL (≈ 296 nM)
  MIC Range: ≤8 to 500 ng/mL
[1]; Streptococcus pneumoniae, 150 strains, read-out: MIC90
  MIC90: 250 ng/mL (≈ 296 nM)
[1]; Streptococcus pneumoniae, N = 150
  MIC50: 15 ng/mL (≈ 17.8 nM)
[2]; Haemophilus influenzae, 100 strains, read-out: MIC90
  MIC90: 2000 ng/mL (≈ 2370 nM)
[2]; Haemophilus influenzae, N = 100
  MIC50: 1000 ng/mL (≈ 1180 nM)
[2]; N = 100
  MIC90: 2000 ng/mL (≈ 2370 nM)
  MIC Range: 120 to 4000 ng/mL
[3]; Chlamydia pneumoniae, 10 strains, read-out: MIC90
  MIC90: 250 ng/mL (≈ 296 nM)
[3]; Chlamydia pneumoniae, N = 10
  MIC50: 250 ng/mL (≈ 296 nM)
[3]; N = 10
  MIC90: 250 ng/mL (≈ 296 nM)
  MIC Range: 250 to 1000 ng/mL
[4]; Legionella pneumophila
  MIC50: ≤ 15 ng/mL
  MIC90: ≤ 15 ng/mL
[4]; N = 30
  MIC90: ≤15 ng/mL
  MIC Range: ≤15 ng/mL
[5]; Mycoplasma, 38 strains, read-out: MIC90
  MIC90: 0.125 ng/mL (≈ 0.148 nM)
[5]; Mycoplasma, N = 38
  MIC50: 0.032 ng/mL (≈ 0.0379 nM)
[5]; N = 38
  MIC90: 0.125 ng/mL (≈ 0.148 nM)
  MIC Range: ≤6.3e-05 to 500 ng/mL
[6]
  MIC50: 30 ng/mL (≈ 35.5 nM)
  MIC90: 64000 ng/mL (≈ 75700 nM)
[6]; 30 species
  I (intermediate susceptibility): 0%
  NS (not susceptible): 30%
  S (susceptible): 70%
[7]
  I (intermediate susceptibility): 3%
  NS (not susceptible): 17%
  S (susceptible): 80%
[7]; Staphylococcus epidermidis
  MIC50: 15 ng/mL (≈ 17.8 nM)
  MIC90: 32000 ng/mL (≈ 37900 nM)
[8]
  MIC50: 120 ng/mL (≈ 142 nM)
  MIC90: > 16000 ng/mL
[9]
  MIC Range: 60 to 120 ng/mL
[9]; Staphylococcus aureus, MRSA
  MIC50: 120 ng/mL (≈ 142 nM)
  MIC90: 120 ng/mL (≈ 142 nM)
[10]; Haemophilus parainfluenzae
  MIC50: 2000 ng/mL (≈ 2370 nM)
  MIC90: 2000 ng/mL (≈ 2370 nM)
[10]
  MIC Range: 1000 to 2000 ng/mL
[11]
  MIC50: ≤ 30 ng/mL
  MIC90: ≤ 30 ng/mL
  MIC Range: ≤0.03-0.25^ μg/mL
[12]
  activity against AZI resistant strains: active against all AZI resistant strains tested
[12]; acidic pH, including in L. monocytogenes and S. aureus
  activity at acidic pH relative to AZI: 100-200 fold
[12]; greater activity than conventional macrolides
  activity relative to conventional macrolides: 10 fold
[12]; intracellular
  intracellular activity relative to AZI: 10 fold
[12]; phagocytized bacteria
  activity against phagocytized L. monocytogenes and L. pneumophila relative to conventional macrolides: 50-100 fold
[13]
  potency relative to azithromycin: 100 fold
[14]; Homo sapiens, U-937, LPS, PMA-differentiated U937 cells, read-out: IC50 on TNFα release
  IC50: 41.6 ± 1.9 µM
[14]; at 100 μM
  effect on TNFα production: significantly inhibited
[15]; 1 h
  concentration in receptor fluid (therapeutically effective): ≥ 1000 ng/mL
[15]
  time after administration at which drug was observed in receptor fluid: ≤ 1 h
